The values that follow come from patent US8138196B2, “Antifungal wallboards and building materials and methods for the production thereof” (Syngenta Crop Protection, Inc., priority 2005, dated 2012).

What all share (type): cell-based
Experiment [1] has as its system Aureobasidium pullulans (ATCC 15233). The experiment can be described thus: Example 3 liquid culture assay on 24 well plates, solo and 2-way mixtures. From the text: (§1) Alternaria tenuissima (DSM 63360), Penicillium chrysogenum (DSM 895), Stachybotrys chartarum (DSM2144), Aspergillus niger (DSM 63263), Aspergillus versicolor (DSM 1943) and Aureobasidium pullulans (ATCC 15233) were separately cultivated on PDA media to […] sporulation. Spore suspensions were produced for each fungi. Spore concentrations of approx. 100.000 spores/ml were used.
(§2) Test method used: liquid culture assay on 24 well plates.
(§3) For solo (i.e. single) ai testing the formulated fungicide (100 ul) was filled into the 24 well plates and 100 ul distilled water was added. Afterwards 800 ul of 0.3% AE media was added to the plate. The spore suspension of the specific fungi was added to this media in advance containing approx. 100,000 spores/ml. The 24 well plates were sealed and incubated at 24° C.
(§4) Dependent on the growth properties of each organisms, the evaluation was done after 3 to 6 days, when the surface of the check well was covered with mycelium. The evaluation was performed by assessing the growth of the fungi related to the check growth. The results are expressed as % activity relative to the check (values of 0-100% growth). Afterwards the results were converted in % O growth inhibition.
(§5) For synergism testing of the 2-way mixtures 100 ul of each fungicide were filled into 24 well plates and 800 ul of 0.3% AE media containing the spore suspension was added. Different ratios of the 2 fungicide rates were tested at the same time.
(§6) For the mixtures of different fungicides the synergism was calculated based on the Colby equation, which is described below: […]
(§7) The fungicidal action to be expected, We, for a given combination of two fungicides can be calculated as follows (see COLBY, S. R. “Calculating synergistic and antagonistic response of herbicide combinations”. Weeds 15, pages 20-22; 1967): We=X+[Y×(100−X)/100] wherein: • X=% activity in the case of treatment with the compound of formula I at rate x, in comparison with untreated control (=0%). • Y=% activity in the case of treatment with a compound of formula II at rate y, in comparison with untreated control. • We=expected activity (% activity in comparison with untreated control) after treatment with the compound of formula I and a compound of formula II at a rate of x+y kg of active ingredient.
(§8) If the activity actually observed is greater than the expected value We (factor observed activity/expected activity >1.2), there is a synergistic effect.

Experiment [2] relates to Stachybotrys chartarum (DSM2144). Described as above. Conditions: test 006-2005.
From the text: as §1, §2, §3, §4, §5, §6, §7, §8

The next experiment deals with Coniophora puteana. The experiment can be described thus: radial mycelial growth on fungicide amended agar. Conditions: estimated from graph of % activity (radial mycelial growth relative to agar without fungicide) against concentration. The protocol:
Stem cultures of Coniophora puteana were produced by propagating the fungus on a growth medium comprising yeast extract (10 g), glycerol (20 ml), magnesium sulphate (0.5 g), sodium nitrate (6.0 g), potassium chloride (0.5 g), potassium dihydrogen orthophosphate (1.5 g), agar (20 g) in distilled water (980 ml).
Fungicides were added at levels of 5000, 100, 10, 1, 0.1 and 0.01 mg fungicide/litre of growth medium (described above) to give […] different growth medium compositions for each fungicide. Mycelial plugs were taken from the stem cultures and transferred upside down onto petri dishes containing the fungicide amended agar.
The radial mycelial growth of the fungus was measured individually on all test petri dishes. The results are expressed as % activity relative to the radial growth on agar without fungicide.
For each fungicide, a graph was drawn of percentage activity against concentration of fungicide in the growth medium. From this graph, the concentrations of fungicide required to achieve 80% activity was estimated. These figures are given in the results table.

The test system of experiment [3] is Alternaria tenuissima (DSM 63360). The experiment in a line: Example 4 liquid culture assay on 24 and 48 well plates, 3 way mixtures. Conditions: A. tenuissima. The source says: (§9) For test 006-2005: Alternaria tenuissima (DSM 63360), Penicillium chrysogenum (DSM 895), Cladosporium cladosporoides (DSM62121), Aspergillus niger (DSM 63263), Aspergillus versicolor (DSM 1943) and Aureobasidium pullulans (ATCC 15233) were separately cultivated on PDA media to […] sporulation. Spore suspensions were produced for each fungus. Spore concentrations of approx. 100,000 spores/ml were used.
(§10) […] Spore suspensions were produced for each fungus. Spore concentrations of approx. 100,000 spores/ml were used.
(§11) Test method used: liquid culture assay on 24 and 48 well plates respectively.
(§12) For testing of the 3 way mixtures each of the formulated fungicide (100 ul) was filled into the 24 and 48 well plates respectively. Afterwards 700 ul of 0.3% AE media was added to the plate. The spore suspension of the specific fungi was added to this media in advance containing approx. 100,000 spores/ml. For testing the solo compounds the equivalent of distilled water was added instead of the formulated fungicide volume of the mixing partners. The plates were then sealed and incubated at 24° C.
(§13) Dependent on the growth properties of each organisms, the evaluation was done after 3 to 6 days, when the surface of the check well was covered with mycelium. The evaluation was performed by assessing the growth of the fungi related to the check growth. The results are expressed as % activity relative to the check (values of 0-100% growth). Afterwards the results were converted in % growth inhibition.
(§14) For the mixtures of different fungicides the synergism was calculated based on the Colby equation, which is described above.

Experiment [4] has the same test system. The experiment in a line: Example 3 liquid culture assay on 24 well plates, solo and 2-way mixtures. Conditions: test 015-2005.
From the text: as §1, §2, §3, §4, §5, §6, §7, §8

In experiment [5] the test system is Stachybotrys chartarum (DSM 2144). The experiment in a line: Example 4 liquid culture assay on 24 and 48 well plates, 3 way mixtures. The settings on record: test 015-2005, S. chartarum. The protocol:
as §10, §11, §12, §13, §14

In experiment [6] the test system is Aspergillus niger (DSM 63263). The description is as above. Conditions: A. niger.
From the text: as §9
For test 015-2006: Alternaria tenuissima (DSM 63360), Penicillium pinophilum (CBS342.61), Gliocladium virens (DSM1963), Aspergillus niger (DSM 63263), Stachybotrys chartarum (DSM 2144) and Aureobasidium pullulans (ATCC 15233) were separately cultivated on PDA media to […] sporulation. Spore suspensions were produced for each fungus. Spore concentrations of approx. 100,000 spores/ml were used.
as §11, §12, §13, §14

Experiment [7] deals with Aspergillus versicolor (DSM 1943). The experiment is described as above. Conditions: test 006-2005, A. versicolor.
From the text: as §9, §11, §12, §13, §14

Values joined by “and” are separate entries in the source; they are usually repeats but may differ in a detail not shown here. Equal values may be shown once. Bounds are passed on as bounds.

With `CC1COC(Cn2cncn2)(c2ccc(Oc3ccc(Cl)cc3)cc2Cl)O1` (stereo not shown) [Difenoconazole], the “inh % (DFZ alone)” value in experiment [1] (test 006-2005, rate (DFZ) 3.12 mg ai/l) stood at 70%.
As to `CCCC1COC(Cn2cncn2)(c2ccc(Cl)cc2Cl)O1` (stereo not shown) [Propiconazole], the “inh % (PPZ alone)” value in experiment [2] (rate (PPZ) 0.8 mg ai/l) is given as 0%; in experiment [2] (rate (PPZ) 1.6 mg ai/l), 10%; in experiment [2] (rate (PPZ) 3.12 mg ai/l), 10%; in experiment [1] (test 006-2005, rate (PPZ) 1.6 mg ai/l), 70%; in experiment [1] (test 006-2005, rate (PPZ) 3.12 mg ai/l), 70%; in experiment [1] (test 006-2005, rate (PPZ) 12.5 mg ai/l), 70%. For the same molecule, the “inh % (PPZ alone)” value in experiment [1] (test 015-2005, rate (PPZ) 25 mg ai/l) is reported as 50%; in experiment [1] (test 015-2005, rate (PPZ) 50 mg ai/l), 70%. Also, in the experiment with Coniophora puteana, the “Concentration required for 80% Activity” value is 1.8 mg/L.
With `c1ccc2[nH]c(-c3cscn3)nc2c1` [Thiabendazole], the “inh % (TBZ alone)” value in experiment [3] (test 006-2005, TBZ 0.2 mg ai/l) is given as 0%; in experiment [3] (test 006-2005, TBZ 0.8 mg ai/l) it was 0%; in experiment [3] (test 006-2005, TBZ 1.6 mg ai/l), 0%; in experiment [3] (test 015-2005, TBZ 0.2 mg ai/l), 0%; in experiment [3] (test 015-2005, TBZ 1.6 mg ai/l), 0%; in experiment [3] (test 015-2005, TBZ 3.1 mg ai/l), 0%. Further, the “inh % (TBZ alone)” value in experiment [3] (test 015-2005, TBZ 6.25 mg ai/l) was found to be 0%; in experiment [3] (test 015-2005, TBZ 25 mg ai/l), 0%; in experiment [3] (test 015-2005, TBZ 100 mg ai/l), 0%; in experiment [4] (rate (TBZ) 12.5 mg ai/l) it was 0%; in experiment [4] (rate (TBZ) 25 mg ai/l), 0%; in experiment [4] (rate (TBZ) 50 mg ai/l), 0%. Further, the “inh % (TBZ alone)” value was 0% in experiment [4] (rate (TBZ) 100 mg ai/l); 0% in experiment [4] (rate (TBZ) 200 mg ai/l); 0% and 10% in experiment [5] (TBZ 3.1 mg ai/l, listed as TBZ); 10% in experiment [5] (TBZ 6.25 mg ai/l); 30% in experiment [5] (TBZ 25 mg ai/l); 0% in experiment [6] (test 006-2005, TBZ 0.8 mg ai/l). The “inh % (TBZ alone)” value in experiment [6] (test 015-2005, TBZ 0.2 mg ai/l) came to 0%; in experiment [6] (test 015-2005, TBZ 0.8 mg ai/l), 0%; in experiment [7] (TBZ 0.2 mg ai/l), 0%; in experiment [7] (TBZ 0.8 mg ai/l), 0%; in experiment [7] (TBZ 1.6 mg ai/l), 10%. The “Concentration required for 80% Activity” value with Coniophora puteana is over 5000 mg/L.
